# Earlier results in patent publication US9375470B2, “Compositions with reduced dimer formation” (Circassia Limited, priority 2008, dated 2016).
# Where two headings read alike, the source gives them in different places.
# [1] = reported values, Tg for the maximally freeze concentrated state
Compound,Teut (eutectic temperature),Tg (reported values),Tg′,Tg′ [1]
OC[C@@H](O)[C@@H](O)[C@H](O)[C@H](O)CO [mannitol],−3 °C,–,–,–
OC[C@H]1O[C@@](CO)(O[C@H]2O[C@H](CO)[C@@H](O)[C@H](O)[C@H]2O)[C@@H](O[C@H]2O[C@H](CO)[C@@H](O)[C@H](O)[C@H]2O)[C@@H]1O [Melezitose],–,>100 °C,–,–
OC[C@H]1O[C@@](CO)(O[C@H]2O[C@H](CO)[C@@H](O)[C@H](O)[C@H]2O)[C@@H](O)[C@@H]1O [Sucrose],–,43-65 °C,−32 °C,Approx. −46
OC[C@H]1O[C@H](O[C@H]2O[C@H](CO)[C@@H](O)[C@H](O)[C@H]2O)[C@H](O)[C@@H](O)[C@@H]1O [Trehalose],–,63-115 °C,–,Approx. −27
OC[C@H]1O[C@H](OC[C@H]2O[C@H](O[C@]3(CO)O[C@H](CO)[C@@H](O)[C@@H]3O)[C@H](O)[C@@H](O)[C@@H]2O)[C@H](O)[C@@H](O)[C@H]1O [Raffinose],–,70-106 °C,–,Approx. −36
OC[C@H]1O[C@H](OC[C@H]2O[C@H](OC[C@H]3O[C@H](O[C@]4(CO)O[C@H](CO)[C@@H](O)[C@@H]4O)[C@H](O)[C@@H](O)[C@@H]3O)[C@H](O)[C@@H](O)[C@H]2O)[C@H](O)[C@@H](O)[C@H]1O [Stachyose],–,81-123 °C,–,–
